Key:
[1] = daily release or elution of Bimatoprost in vitro versus time (FIG. 8); format: physicochemical; conditions: four-hundred-day study
[2] = Bimatoprost sampled in the aqueous humor of dogs over time (FIG. 9); format: in vivo
Excerpt: In this example, there was a low dose group of dogs (Grp 1), a mid-dose group of dogs (Grp 2), a high dose group of dogs (Grp 3), and a placebo group of dogs (Grp 4).

- average release rate ([1]; drug delivery component): less than 0.100 micrograms per day
- level of Bimatoprost in the aqueous humor, elution kinetics ([2]; low dose (Grp 1), mid-dose (Grp 2) and high dose (Grp 3) groups, study period of about one hundred thirteen days): zero-order elution rate
- mean measurements of Bimatoprost in the aqueous humor, dose dependence ([2]; low, mid and high dose groups): increased with the higher doses
SMILES: CCNC(=O)CCC/C=C\C[C@@H]1[C@@H](/C=C/[C@@H](O)CCc2ccccc2)[C@H](O)C[C@@H]1O [Bimatoprost]
- release kinetics over the study [1]: essentially a zero-order and/or a steady state elution rate

Reference: patent publication US12193972B2, “Intraocular drug delivery systems and methods of use” (SpyGlass Pharma, Inc., priority 2022, dated 2025)
